From patent US10681909B2, “Herbicidal triazoles” (FMC Corporation, priority 2014, dated 2020)

Legend:
pigweed [1] = test: Test A postemergence; format: in vivo, Amaranthus retroflexus; conditions: 0 to 100 scale (0 no effect, 100 complete control), approx. 10 d
How it was run: (§1)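 Herbicidal response was scored on plants treated pre- or postemergence with surfactant-containing, non-phytotoxic solvent formulations. Preemergence meant a directed spray onto soil (loam–sand) holding sown seed; postemergence plants were at one to two leaves.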

velvetleaf [2] = test: Test A postemergence; format: in vivo, Abutilon theophrasti; conditions: 0 to 100 scale (0 no effect, 100 complete control), approx. 10 d
How it was run: as §1

wheat [3] = test: Test A preemergence; format: in vivo, Triticum aestivum; conditions: 0 to 100 scale (0 no effect, 100 complete control)
How it was run: as §1

foxtail, giant [4] = test: Test A preemergence; format: in vivo, Setaria faberii; conditions: 0 to 100 scale (0 no effect, 100 complete control)
How it was run: as §1

barnyardgrass [5] = test: Test A preemergence; format: in vivo, Echinochloa crus-galli; conditions: 0 to 100 scale (0 no effect, 100 complete control)
How it was run: as §1

wheat [6] = test: Test A postemergence; format: in vivo, Triticum aestivum; conditions: 0 to 100 scale (0 no effect, 100 complete control), approx. 10 d
How it was run: as §1

foxtail, giant [7] = test: Test A postemergence; format: in vivo, Setaria faberii; conditions: 0 to 100 scale (0 no effect, 100 complete control), approx. 10 d
How it was run: as §1

velvetleaf [8] = test: Test A preemergence; format: in vivo, Abutilon theophrasti; conditions: 0 to 100 scale (0 no effect, 100 complete control)
How it was run: as §1

sedge, umbrella = test: Test C flooded paddy test; format: in vivo, Cyperus difformis; conditions: Flood, applied to paddy water, rating after 13 to 15 d
Excerpt: (§2) At time of treatment, test pots were flooded to 3 cm above the soil surface, treated by application of test compounds directly to the paddy water, and then maintained at that water depth for the duration of the test. Treated plants and controls were maintained in a greenhouse for 13 to 15 d, after which time all species were compared to controls and visually evaluated. […] A dash (-) response means no test result.

barnyardgrass [9] = test: Test C flooded paddy test; format: in vivo, Echinochloa crus-galli; conditions: Flood, applied to paddy water, rating after 13 to 15 d
Excerpt: as §2

morningglory [10] = test: Test A preemergence; format: in vivo, Ipomoea spp.; conditions: 0 to 100 scale (0 no effect, 100 complete control)
How it was run: as §1

corn [11] = test: Test A postemergence; format: in vivo, Zea mays; conditions: 0 to 100 scale (0 no effect, 100 complete control), approx. 10 d
How it was run: as §1

morningglory [12] = test: Test A postemergence; format: in vivo, Ipomoea spp.; conditions: 0 to 100 scale (0 no effect, 100 complete control), approx. 10 d
How it was run: as §1

ducksalad = test: Test C flooded paddy test; format: in vivo, Heteranthera limosa; conditions: Flood, applied to paddy water, rating after 13 to 15 d
Excerpt: as §2

barnyardgrass [13] = test: Test A postemergence; format: in vivo, Echinochloa crus-galli; conditions: 0 to 100 scale (0 no effect, 100 complete control), approx. 10 d
How it was run: as §1

crabgrass, large [14] = test: Test A preemergence; format: in vivo, Digitaria sanguinalis; conditions: 0 to 100 scale (0 no effect, 100 complete control)
How it was run: as §1

crabgrass, large [15] = test: Test A postemergence; format: in vivo, Digitaria sanguinalis; conditions: 0 to 100 scale (0 no effect, 100 complete control), approx. 10 d
How it was run: as §1

pigweed [16] = test: Test A preemergence; format: in vivo, Amaranthus retroflexus; conditions: 0 to 100 scale (0 no effect, 100 complete control)
How it was run: as §1

rice = test: Test C flooded paddy test; format: in vivo, Oryza sativa; conditions: Flood, applied to paddy water, rating after 13 to 15 d
Excerpt: as §2

corn [17] = test: Test A preemergence; format: in vivo, Zea mays; conditions: 0 to 100 scale (0 no effect, 100 complete control)
How it was run: as §1

Cc1nc(-c2ccc(C(F)(F)F)cc2)nn1Cc1cccc(C(F)(F)F)c1 [Compound 3]
Plant response rating, Pigweed (pigweed [1]; 125 g ai/ha): 60 | Plant response rating, Pigweed (pigweed [1]; 500 g ai/ha): 100 | Plant response rating, Velvetleaf (velvetleaf [2]; 125 g ai/ha): 10 | Plant response rating, Velvetleaf (velvetleaf [2]; 500 g ai/ha): 40 | Plant response rating, Wheat (wheat [3]; 125 g ai/ha): 0 | Plant response rating, Wheat (wheat [3]; 500 g ai/ha, approx. 10 d): 0 | Plant response rating, Foxtail, Giant (foxtail, giant [4]; 125 g ai/ha): 0 | Plant response rating, Foxtail, Giant (foxtail, giant [4]; 500 g ai/ha, approx. 10 d): 30 | Plant response rating, Barnyardgrass (barnyardgrass [5]; 125 g ai/ha): 0 | Plant response rating, Barnyardgrass (barnyardgrass [5]; 500 g ai/ha, approx. 10 d): 0 | Plant response rating, Wheat (wheat [6]; 125 g ai/ha): 0 | Plant response rating, Wheat (wheat [6]; 500 g ai/ha): 0 | Plant response rating, Foxtail, Giant (foxtail, giant [7]; 125 g ai/ha): 10 | Plant response rating, Foxtail, Giant (foxtail, giant [7]; 500 g ai/ha): 30 | Plant response rating, Velvetleaf (velvetleaf [8]; 125 g ai/ha): 0 | Plant response rating, Velvetleaf (velvetleaf [8]; 500 g ai/ha, approx. 10 d): 0 | Sedge, Umbrella plant response rating (0 to 100) (sedge, umbrella; 31 g ai/ha): 0 | Sedge, Umbrella plant response rating (0 to 100) (sedge, umbrella; 62 g ai/ha): 0 | Sedge, Umbrella plant response rating (0 to 100) (sedge, umbrella; 125 g ai/ha): 40 | Sedge, Umbrella plant response rating (0 to 100) (sedge, umbrella; 250 g ai/ha): 50 | Barnyardgrass plant response rating (0 to 100) (barnyardgrass [9]; 31 g ai/ha): 0 | Barnyardgrass plant response rating (0 to 100) (barnyardgrass [9]; 62 g ai/ha): 20 | Barnyardgrass plant response rating (0 to 100) (barnyardgrass [9]; 125 g ai/ha): 20 | Barnyardgrass plant response rating (0 to 100) (barnyardgrass [9]; 250 g ai/ha): 20 | Plant response rating, Morningglory (morningglory [10]; 125 g ai/ha): 0 | Plant response rating, Morningglory (morningglory [10]; 500 g ai/ha, approx. 10 d): 0 | Plant response rating, Corn (corn [11]; 125 g ai/ha): 10 | Plant response rating, Corn (corn [11]; 500 g ai/ha): 20 | Plant response rating, Morningglory (morningglory [12]; 125 g ai/ha): 40 | Plant response rating, Morningglory (morningglory [12]; 500 g ai/ha): 80 | Ducksalad plant response rating (0 to 100) (ducksalad; 31 g ai/ha): 0 | Ducksalad plant response rating (0 to 100) (ducksalad; 62 g ai/ha): 20 | Ducksalad plant response rating (0 to 100) (ducksalad; 125 g ai/ha): 30 | Ducksalad plant response rating (0 to 100) (ducksalad; 250 g ai/ha): 40 | Plant response rating, Barnyardgrass (barnyardgrass [13]; 125 g ai/ha): 0 | Plant response rating, Barnyardgrass (barnyardgrass [13]; 500 g ai/ha): 10 | Plant response rating, Crabgrass, Large (crabgrass, large [14]; 125 g ai/ha): 0 | Plant response rating, Crabgrass, Large (crabgrass, large [14]; 500 g ai/ha, approx. 10 d): 40 | Plant response rating, Crabgrass, Large (crabgrass, large [15]; 125 g ai/ha): 10 | Plant response rating, Crabgrass, Large (crabgrass, large [15]; 500 g ai/ha): 40 | Plant response rating, Pigweed (pigweed [16]; 125 g ai/ha): 10 | Plant response rating, Pigweed (pigweed [16]; 500 g ai/ha, approx. 10 d): 80 | Rice plant response rating (0 to 100) (rice; 31 g ai/ha): 0 | Rice plant response rating (0 to 100) (rice; 62 g ai/ha): 0 | Rice plant response rating (0 to 100) (rice; 125 g ai/ha): 0 | Rice plant response rating (0 to 100) (rice; 250 g ai/ha): 0 | Plant response rating, Corn (corn [17]; 125 g ai/ha): 0 | Plant response rating, Corn (corn [17]; 500 g ai/ha, approx. 10 d): 0

Cc1nc(-c2ccc(C(F)(F)F)cc2)nn1Cc1cccc(OC(F)(F)F)c1 [Compound 4]
Plant response rating, Pigweed (pigweed [1]; 125 g ai/ha): 40 | Plant response rating, Pigweed (pigweed [1]; 500 g ai/ha): 80 | Plant response rating, Velvetleaf (velvetleaf [2]; 125 g ai/ha): 0 | Plant response rating, Velvetleaf (velvetleaf [2]; 500 g ai/ha): 10 | Plant response rating, Wheat (wheat [3]; 125 g ai/ha): 0 | Plant response rating, Wheat (wheat [3]; 500 g ai/ha, approx. 10 d): 0 | Plant response rating, Foxtail, Giant (foxtail, giant [4]; 125 g ai/ha): 0 | Plant response rating, Foxtail, Giant (foxtail, giant [4]; 500 g ai/ha, approx. 10 d): 0 | Plant response rating, Barnyardgrass (barnyardgrass [5]; 125 g ai/ha): 0 | Plant response rating, Barnyardgrass (barnyardgrass [5]; 500 g ai/ha, approx. 10 d): 0 | Plant response rating, Wheat (wheat [6]; 125 g ai/ha): 0 | Plant response rating, Wheat (wheat [6]; 500 g ai/ha): 0 | Plant response rating, Foxtail, Giant (foxtail, giant [7]; 125 g ai/ha): 10 | Plant response rating, Foxtail, Giant (foxtail, giant [7]; 500 g ai/ha): 10 | Plant response rating, Velvetleaf (velvetleaf [8]; 125 g ai/ha): 0 | Plant response rating, Velvetleaf (velvetleaf [8]; 500 g ai/ha, approx. 10 d): 0 | Sedge, Umbrella plant response rating (0 to 100) (sedge, umbrella; 31 g ai/ha): 0 | Sedge, Umbrella plant response rating (0 to 100) (sedge, umbrella; 62 g ai/ha): 0 | Sedge, Umbrella plant response rating (0 to 100) (sedge, umbrella; 125 g ai/ha): 0 | Sedge, Umbrella plant response rating (0 to 100) (sedge, umbrella; 250 g ai/ha): 0 | Barnyardgrass plant response rating (0 to 100) (barnyardgrass [9]; 31 g ai/ha): 0 | Barnyardgrass plant response rating (0 to 100) (barnyardgrass [9]; 62 g ai/ha): 0 | Barnyardgrass plant response rating (0 to 100) (barnyardgrass [9]; 125 g ai/ha): 0 | Barnyardgrass plant response rating (0 to 100) (barnyardgrass [9]; 250 g ai/ha): 0 | Plant response rating, Morningglory (morningglory [10]; 125 g ai/ha): 0 | Plant response rating, Morningglory (morningglory [10]; 500 g ai/ha, approx. 10 d): 0 | Plant response rating, Corn (corn [11]; 125 g ai/ha): 10 | Plant response rating, Corn (corn [11]; 500 g ai/ha): 10 | Plant response rating, Morningglory (morningglory [12]; 125 g ai/ha): 10 | Plant response rating, Morningglory (morningglory [12]; 500 g ai/ha): 60 | Ducksalad plant response rating (0 to 100) (ducksalad; 31 g ai/ha): 0 | Ducksalad plant response rating (0 to 100) (ducksalad; 62 g ai/ha): 0 | Ducksalad plant response rating (0 to 100) (ducksalad; 125 g ai/ha): 0 | Ducksalad plant response rating (0 to 100) (ducksalad; 250 g ai/ha): 0 | Plant response rating, Barnyardgrass (barnyardgrass [13]; 125 g ai/ha): 0 | Plant response rating, Barnyardgrass (barnyardgrass [13]; 500 g ai/ha): 10 | Plant response rating, Crabgrass, Large (crabgrass, large [14]; 125 g ai/ha): 0 | Plant response rating, Crabgrass, Large (crabgrass, large [14]; 500 g ai/ha, approx. 10 d): 0 | Plant response rating, Crabgrass, Large (crabgrass, large [15]; 125 g ai/ha): 10 | Plant response rating, Crabgrass, Large (crabgrass, large [15]; 500 g ai/ha): 10 | Plant response rating, Pigweed (pigweed [16]; 125 g ai/ha): 0 | Plant response rating, Pigweed (pigweed [16]; 500 g ai/ha, approx. 10 d): 0 | Rice plant response rating (0 to 100) (rice; 31 g ai/ha): 0 | Rice plant response rating (0 to 100) (rice; 62 g ai/ha): 0 | Rice plant response rating (0 to 100) (rice; 125 g ai/ha): 0 | Rice plant response rating (0 to 100) (rice; 250 g ai/ha): 0 | Plant response rating, Corn (corn [17]; 125 g ai/ha): 0 | Plant response rating, Corn (corn [17]; 500 g ai/ha, approx. 10 d): 0
